From patent publication US10047386B2, “Biomarker for abdominal aortic aneurysm” (THE REGENTS OF THE UNIVERSITY OF CALIFORNIA, priority 2011, dated 2018)
“And” between values parts separate entries of the source, which are not always exact repeats. Equal entries are not always repeated. “Also recorded” adds a separate entry of the source.

How the values were obtained:
Format in all cases: in vivo
hph-1 mice [1] = experiment: AAA formation in Ang II-infused hph-1 mice; conditions: for AAA total morbidity / incidence rate: Ang II 0.7 mg/kg per day for 14 days, FA 15 mg/kg per day oral where given
Description: (§1) The hph-1 mice (originally in CBA background)^19 were backcrossed with C57BL6 mice for >10 generations and genotyped based on a protocol by Khoo et al.^21 Only homozygote hph-1 mice in C57BL6 background were used for experiments. WT and hph-1 male mice at 24 weeks of age were infused with Ang II (0.7 mg/kg per day) using subcutaneously implanted osmotic pumps (Durect Corp). During the 14-day infusion, blood pressure was monitored by telemetry method. Wireless blood pressure probes were implanted into the animals 10 days before the implantation of the osmotic pumps. The catheter of the blood pressure probe was inserted into the left carotid artery, whereas the body of the probe was inserted into the right flank.
(§2) WT and hph-1 mice were started on continuous oral administration of FA (15 mg/kg per day) or tail vein transfection of DHFR expression vector (pcDNA3.1-DHFR)5 in lipid-based reagent from Altogen Biosystems every other day for 14 days, starting 2 days before Ang II infusion. The mice were monitored twice per day during the infusion period of 2 weeks, and aortas were harvested for assessment of AAA formation, endothelial DHFR expression, and eNOS uncoupling activity by day 14. Animals that died suddenly during the infusion period of 14 days were inspected for aneurysm immediately and aortas were freshly harvested for experiments.

apoE null mice = experiment: AAA formation in Ang II-infused apoE null mice; conditions: for number of mice with AAA / number of mice with No AAA: Ang II 4 weeks, FA 15 mg/kg/day where given
Description: Animals were fed normal chow or customized FA chew (15 mg/kg/day) two days prior to Ang II infusion and throughout the study period of 4 weeks. Of note, 24 out of 26 Ang II infused apoE null mice (92.3%) on normal chow developed AAA (FIG. 11). […] L-NAME sensitive superoxide production, which reflects eNOS uncoupling activity, was also measured.
For this study, apoE null male animals were infused with Ang II for 4 weeks, which has been shown in literature to reliably produce AAA in 90-100% of the animals. One group of animals is fed food mixed with FA. AAA development is monitored using a noninvasive ultrasound technique during the infusion period. At the end of the four weeks, aortas from the animals were harvested and histology or biochemical assays were performed to assess for various markers of AAA and eNOS functional state.
Animals were either given regular chow, or food pellets made in house mixed with FA (15 mg/kg/day). Aorta are carefully dissected and cleaned of connective tissue from the animals after euthanasia. Blood samples (˜0.1 mL) are collected from each animal on a weekly basis and after euthanasia.
The development of AAA is monitored noninvasively via an ultrasound imaging system (Vevo 770, Visualsonics) during the Ang II-infusion period. The abdominal aortas were imaged transversely and identified via Doppler measurements for the presence of a major pulsatile flow. […] Aorta size is later measured offline from images captured. Two measurements per week after Ang II infusion, as well as two measurements before the Ang II infusion (for control) are made. AAA is defined as an enlargement of the abdominal aorta by at least 50%, and later confirmed at the experimental end point. The AAA incidence for this model was also assessed by direct inspection of abdominal aorta at time of harvest, or post-mortem in those died of sudden rupture.

WT mice [2] = experiment: Mean blood pressure by intracarotid telemetry, WT mice
Description: as §1
(§3) Animals were given 1 week to recover from the surgery. After this period, blood pressure was measured for 3 days to obtain a baseline. The osmotic pumps were then implanted on day 10 after surgery. Measurements were made daily from 9:00 AM to 4:00 PM at a 250-Hz sampling rate. Average blood pressure was calculated daily as the average of the entire recording period. The use of animals and experimental procedures were approved by the institutional animal care and usage committee at the University of California Los Angeles. […]

hph-1 mice [3] = experiment: Mean blood pressure by intracarotid telemetry, hph-1 mice
Description: as §1, §3

aortic H4B [4] = experiment: HPLC determination of aortic H4B content, hph-1 mice; conditions: for aortic levels of H4B: hph-1 mice, Example 3, n=3 each (vehicle 1.87±0.25)
Description: (§4) Animals were given 1 week to recover from the surgery. After this period, blood pressure was measured for 3 days to obtain a baseline. The osmotic pumps were then implanted on day 10 after surgery. Measurements were made daily from 9:00 AM to 4:00 PM at a 250-Hz sampling rate. Average blood pressure was calculated daily as the average of the entire recording period. The use of animals and experimental procedures were approved by the institutional animal care and usage committee at the University of California Los Angeles. Electron spin resonance determination of aortic NO and superoxide production, high-performance liquid chromatography determination of aortic H4B content, and Western blot determination of endothelial DHFR expression were performed as published previously.^1,2,5
(§5) H4B levels are measured using a HPLC system as previously described. Briefly, aorta samples are lysed with trichloroacetic acid and DTT, subjected to acidic or alkalytic oxidation, and H4B and its oxidized species are detected with a fluorescent detector after separation in the HPLC system (Shimadzu).

aortic H4B [5] = experiment: HPLC determination of aortic H4B content, WT mice; conditions: Ang II-infused WT mice, FA 15 mg/kg per day
Description: as §4, §5

aortic H4B [6] = experiment: HPLC determination of aortic H4B, apoE null mice; conditions: n=6 (vehicle 4.86±0.32)
Description: as §5
(§6) Also investigated was whether FA supplementation as used above leads to improved H4B availability both in the circulation and in the vascular tissues. Ang II-infused apoE null or hph-1 mice are treated with diets supplemented with FA, and circulating and aortic H4B contents are determined using HPLC at different time points of 1, 2, 3 and 4 wks. […] It is established that it takes 3-4 weeks for AAA to develop in Ang II-infused apoE null mice, and at these time points, circulating and tissues H4B levels were indeed decreased, but restored by FA treatment (FIGS. 9-10).

plasma H4B [7] = experiment: HPLC determination of plasma H4B, apoE null mice; conditions: n=6 each (vehicle 3.31±0.13)
Description: as §5
(§7) Blood samples are collected from Ang II-infused apoE null and hph-1 animals. Approximately 0.1 mL of blood is collected from each animal from the tail vein on a weekly basis. HPLC is used to determine the concentration of H4B in the blood samples as outlined above.
as §6

plasma H4B [8] = experiment: HPLC determination of plasma H4B, hph-1 mice; conditions: n=3 each (vehicle 1.37±0.05)
Description: as §5, §7, §6

hph-1 mice [9] = experiment: Ultrasound detection of abdominal aorta size, hph-1 mice; conditions: Ang II infusion, day 0 values 0.37 (Ang II) and 0.39 (FA)
Text: (§8) Animals were anesthetized with isoflurane and placed on a temperature-controlled table, which also measures ECG for heart rate. Isoflurane levels were adjusted throughout the experiment to maintain heart rate between 400 and 500 bpm while keeping the animal sufficiently anesthetized. Hair was removed from the abdomen using a hair removal cream, and preheated ultrasound transmission gel was applied onto the abdomen area. An ultrasound probe (Velvo 770, Visualsonics) was placed on the gel to visualize aorta transversely. The aorta was identified using Doppler measurement for the presence of pulsatile flow. […] Images were recorded and saved onto a PC computer for offline area analysis. Hematoxylin-eosin and Verhoeff-Van Gieson stainings were conducted following standard histological protocols.

endothelial DHFR = experiment: Western blot of endothelial DHFR expression in aortic preparations, hph-1 mice; conditions: Ang II infusion 14 days
Description: as §4
On harvest, whole aorta was cut open longitudinally and then digested with collagenase (0.6 mg/mL) at 37° C. for 20 minutes before gentle removal of endothelial cells with a cotton applicator. The supernatant containing endothelial cells was centrifuged and lysed for Western blot analysis.

hph-1 mice [10] = experiment: Aortic histology (H&E, VVG, macrophage staining), hph-1 mice; conditions: for infiltrating macrophages: Ang II-infused mice
Text: as §8
(§9) Formalin-fixed and paraffin-embedded tissue were sectioned at 5 μm. Paraffin was removed by washing with xylene and then rehydrated with descending concentrations of ethanol. Antigen retrieval was performed by immersing the sections in an antigen retrieval buffer ([…] of citric acid, 0.01% Tween 20) at 98.5° C. for 20 minutes. Sections were washed in PBS plus 0.1% triton (PBS-T) and then blocked with 2% normal goat serum in PBS-T at room temperature for 3 hours. Sections were then incubated with primary antibody (Mac-3, BD Pharmingen, 2%, in PBS-T) overnight at 4° C. After washing with PBS-T for 1 hour, sections were incubated with secondary antibody (Alexa fluor 488, 2% in PBS-T) for 2 hours at room temperature in the dark. After washing with PBS-T for 1 hour, sections were dehydrated with ascending grades of ethanol and then xylene. Sections were mounted with Permount medium and pictures taken with a confocal microscope (Leica, SP1 inverted). MMP activity assays were performed as published previously.^22

MMP2 [11] = experiment: MMP activity zymography of aortas, MMP2, hph-1 mice
Description: as §9
(§10) An increase in MMP activity is one of the hallmarks of AAA development. Therefore, MMP activity can be measured using a zymography technique described in detail in other studies. Briefly, aortic lysates are loaded to gelatin infused SDS-PAGE gels. After electrophoresis, gelatin in the gel is digested by MMP in the loaded samples by incubating the gel in 37° C. overnight. […]

MMP9 = experiment: MMP activity zymography of aortas, MMP9, hph-1 mice
Description: as §9, §10

MMP2 [12] = experiment: MMP activity zymography of aortas, MMP2, WT mice
Description: as §9, §10

WT mice [13] = experiment: AAA formation in Ang II-infused wild-type mice; conditions: Ang II 0.7 mg/kg per day, 14 days
Description: as §1, §2

WT mice [14] = experiment: Ultrasound detection of abdominal aorta size, WT mice; conditions: Ang II infusion, day 0 value 0.53
Text: as §8

eNOS [15] = experiment: ESR aortic superoxide production with or without L-NAME (eNOS uncoupling), apoE null mice
Description: L-NAME sensitive superoxide production, which reflects eNOS uncoupling activity, was also measured.
The functional state of eNOS is assessed in lysed aortic samples by measuring superoxide production in the presence or absence of L-NAME using electron spin resonance (ESR, from Bruker). Under normal conditions where eNOS is coupled, the addition of the eNOS inhibitor L-NAME will increase superoxide production, as eNOS is normally producing NO to scavenge superoxide. However, under eNOS uncoupled conditions where eNOS is producing superoxide, the addition of L-NAME will decrease superoxide production. This direction of change in superoxide production will allow for an accurate assessment of eNOS function in the aortas of the animals.

eNOS [16] = experiment: ESR aortic superoxide production with or without L-NAME (eNOS uncoupling), hph-1 mice; conditions: Ang II-infused hph-1 mice
Description: as §4
(§11) The mice were monitored twice per day during the infusion period of 2 weeks, and aortas were harvested for assessment of AAA formation, endothelial DHFR expression, and eNOS uncoupling activity by day 14. Animals that died suddenly during the infusion period of 14 days were inspected for aneurysm immediately and aortas were freshly harvested for experiments.

eNOS [17] = experiment: ESR aortic superoxide production with or without L-NAME (eNOS uncoupling), WT mice; conditions: Ang II-infused WT mice
Description: as §4, §11

[18] = Ang II-infused hph-1 mice, FA 15 mg/kg per day

## Nc1nc2ncc(CNc3ccc(C(=O)N[C@@H](CCC(=O)O)C(=O)O)cc3)nc2c(=O)[nH]1 [FA, folic acid]
hph-1 mice [1]; Ang II-infused hph-1 mice, 14 days, oral FA 15 mg/kg per day or DHFR vector tail vein transfection every other day
  AAA formation: completely prevented and none
hph-1 mice [1]; hph-1 mice
  AAA total morbidity / incidence rate: 0%
apoE null mice; Ang II 1000 ng/kg/min for 4 weeks, FA 15 mg/kg/day in food where given
  AAA incidence: 16.7% and 17%
apoE null mice
  number of mice with AAA: 4
  number of mice with No AAA: 20
WT mice [2]; Ang II-infused WT mice, FA 15 mg/kg per day
  effect on Ang II-induced hypertension: highly effective in attenuating
hph-1 mice [3]; [18]
  effect on MBP decline: prevented the decline
Aortic H4B [4]; [18]
  aortic H4B levels: even higher than baseline
Aortic H4B [4]
  aortic levels of H4B: 3.00 ± 0.64 pmol/mg
Aortic H4B [5]
  aortic H4B levels: even higher than baseline
Aortic H4B [6]
  aortic H4B levels: 6.60 ± 0.62 pmol/mg
Plasma H4B [7]
  plasma H4B: 5.80 ± 0.30 pmol/mg
Plasma H4B [8]
  plasma levels of H4B: 2.36 ± 0.25 pmol/mg
hph-1 mice [9]
  abdominal aorta cross-sectional area at day 14: 0.52 mm^2
Endothelial DHFR
  endothelial DHFR expression: restored
hph-1 mice [10]; Ang II-infused hph-1 mice
  medial degradation and adventitial inflammatory cell recruitment, H&E staining: abrogated
  medial elastin flattening and rarefaction of elastin fibers, VVG staining: attenuated
hph-1 mice [10]
  infiltrating macrophages: completely attenuated
MMP2 [11]
  Ang II-induced MMP2 activation: attenuated
MMP9
  Ang II-induced MMP9 activation: attenuated
MMP2 [12]
  Ang II-induced MMP2 activation: inhibited

## angiotensin II (DRVYIHPF; Angiotensin-2; UniProt P11859 25-32, looked up) [Ang II, angiotensin II infused by osmotic pump to induce AAA and eNOS uncoupling in mice]
hph-1 mice [1]; hph-1 mice
  AAA total morbidity / incidence rate: 79%
hph-1 mice [1]; hph-1 mice, Ang II 0.7 mg/kg per day, 14 days
  no-AAA rate: 21%
WT mice [13]
  died or developed AAA: none
apoE null mice
  number of mice with AAA: 24
  number of mice with No AAA: 2
WT mice [2]; WT mice, day 6 of Ang II infusion (baseline 101±3)
  mean blood pressure (MBP): 140±2 mm Hg
hph-1 mice [3]; hph-1 mice, day 6 of Ang II infusion (baseline 112±3)
  mean blood pressure (MBP): 140±2 mm Hg
Aortic H4B [4]
  aortic levels of H4B: 0.99 ± 0.11 pmol/mg
Aortic H4B [6]
  aortic H4B levels: 2.72 ± 0.26 pmol/mg
Plasma H4B [7]
  plasma H4B: 1.87 ± 0.11 pmol/mg
Plasma H4B [8]
  plasma levels of H4B: 0.92 ± 0.06 pmol/mg
hph-1 mice [9]
  abdominal aorta cross-sectional area at day 14: 1.96 mm^2
WT mice [14]
  abdominal aorta cross-sectional area at day 14: 0.66 mm^2
eNOS [15]; Ang II 4 weeks (baseline 1.17±0.06)
  L-NAME sensitive superoxide production (eNOS uncoupling activity), fold: 2.22±0.2 fold
eNOS [15]; Ang II 4 weeks, FA 15 mg/kg/day where given
  L-NAME-sensitive superoxide production: markedly increased
eNOS [15]; Ang II 4 weeks, n=6 each
  aortic superoxide production, fold increase: 2.67±0.15 fold
eNOS [16]
  eNOS uncoupling / L-NAME-sensitive O2•− production: further uncoupled; also recorded: progressive uncoupling
eNOS [17]
  eNOS uncoupling / L-NAME-sensitive O2•− production: remained steady
Endothelial DHFR
  endothelial DHFR expression: further reduced
hph-1 mice [10]
  infiltrating macrophages: dramatically upregulated
